Results published in patent publication US6716628B2, “Chondrogenesis promoters and indolin-2-one derivatives” (Chugai Seiyaku Kabushiki Kaisha, priority 1999, dated 2004).

What was measured:
[1] = system: rat primary culture articular chondrocytes; experiment: Uptake of 35S-labeled sulfuric acid into glycosaminoglycan (cartilage matrix synthesis); assay type: cell-based; settings: 10 μmol/L of compound, vs ethanol 1% final concentration control solvent
From the text: Articular chondrocytes were trimmed from the femoral knee joint of 6-week-old male SD rats (Nihon SLC Corp.) using a scalpel, and then digested in 0.3% collagenase (WORTHINGTON Corp.) and cultivated (Calcif. Tissue Int. 19:179-187,1975).
The isolated articular chondrocytes were used to measure glycosaminoglycan synthesis in the cartilage matrix by measurement of the uptake of ^35S-labeled sulfuric acid (Amersham Co., Ltd.) into glycosaminoglycan. Specifically, the articular chondrocytes were cultured in a 96-well cell culturing plate (FALCON Corp.) to a cell density of 10,000 per well. […]
When the chondrocytes reached confluency, the medium was exchanged with one having a serum concentration of 0.3% and culturing was carried out overnight, after which the medium was exchanged with the same type also containing 10 μmol/L of compound A, and then after 3 hours, ^35S-labeled sulfuric acid (Amersham Co., Ltd.) was added at 0.5 μCi per well and culturing was carried out for 24 hours. […] The sample was then filtered with glass fiber filter paper (Toyo Filter Paper Corp.), the filter paper was washed 3 times with 2 mL of 1% cetylpyridinium chloride (20 mmol/L), one each was placed in a liquid scintillation counting vial (PACKARD Corp.), 10 mL of scintillator (Nacalai Tesque Corp.) was poured in, and the radioactivity was measured with a liquid scintillation counter (PACKARD Corp.).

[2] = system: full thickness cartilage deficient rat models; experiment: Cartilage repair effect in full thickness cartilage deficient rat models; assay type: in vivo; settings: 1.0 mmol/L, 50 μL intraarticular daily for 3 weeks from day 7 after operation
Method: A Kirschner wire with a 2.4 mm diameter (Mizuho Medical Instruments Corp.) was used to create a 2.5 mm-deep deficient area in the right femoral patellar surface, reaching to the marrow, in 10-week-old male CD rats (Nihon Charles River Co., Ltd.). From the seventh day after the operation, 50 μL of a 50% dimethylsulfoxide (DMSO) physiological saline solution as a solvent (DMSO: Junsei Chemical Corp.; physiological saline: Otsuka Pharmaceutical Corp.), or of a 1.0 mmol/L compound A solution, was administered into the right knee joint daily once a day for 3 weeks. The daily dosage of compound A was 81.7 μg.
On the day following the day of final administration, the right femur was taken, and fixed in 20% neutral buffered formaldehyde (Wako Pure Chemical Industries) for one week, and then demineralized for 2 weeks with 20% EDTA-4Na solution (pH 7.4, Wako Pure Chemical Industries), and the deficient area was trimmed with a razor (Feather Co., Ltd.). The trimmed area was subjected to paraffin blocking using an automatic embedding apparatus (Sakura Corp.) and paraffin (equivalent mixture of products by Kokusan Kagaku Corp. and Fisher Scientific Corp.). Here, a paraffin automatic dispensing embedding center (Miles Scientific Corp.) was used to fix each paraffin block in a tissue sample cassette (TISSUE-TEK Corp.)
Each paraffin block was cut into 2 μm-thick sections using a microtome (Daiwa Optical Instruments Corp.) and microtome knife (Feather Co., Ltd.), and then attached onto slide glass (Matsunami Glass Corp.) and dried. After drying, the sections were dipped in xylene to remove the paraffin, and then dipped in a step dilution series from ethanol to water and then stored in water. The sections were stained with 0.3% Safranin O (Merck Co.,.Ltd.) and observed with a microscope (magnification: 10× object lens), and a histological score was assigned according to a modification of the method of Wakitani et al. (J. Bone Joint Surg. 76-A, 579-592, 1994).

## CCOC(CN1C(=O)[C@](CC(=O)Nc2ccc(C)cc2)(NC(=O)Nc2ccc(C)cc2)c2ccccc21)OCC [Compound A, (+)-1-(2,2-diethoxyethyl)-3-((4-methylphenyl)aminocarbonylmethyl)-3-(N′-(4-methylphenyl)ureido)indolin-2-one]
[1]
  uptake of 35S-labeled sulfuric acid: significantly increased
[2]
  repair of deficient areas (Safranin O staining): exhibited repair in the Safranin O-positive cartilaginous tissue
[2]; vs solvent alone
  histological score: cell morphology: significant decrease
  histological score: thickness of cartilage: significant decrease
  histological total score: significant decrease
